{"source": "patent US6562842B2", "about": "“Protease inhibitors” (SmithKline Beecham Corporation, priority 1995, dated 2003)", "origin": "cited, not measured here", "key": {"[1]": {"test_system": "bone resorption", "details": "mouse bone organ culture system"}, "[2]": {"test_system": "bone resorption", "details": "mouse calvariae"}, "[3]": {"test_system": "bone resorption", "details": "measured by acute changes in serum calcium; rats on calcium deficient diets"}}, "data": [{"compound": "C[C@H](NC(=O)[C@H](Cc1ccccc1)NC(=O)OCc1ccccc1)C(=O)C=[N+]=[N-]", "note": "[Z-Phe-Ala-CHN2]", "values": [{"measurement": "prevention of bone resorption", "setting": "[1]", "result": "prevent bone resorption"}]}, {"compound": "cystatin", "values": [{"measurement": "inhibition of PFH stimulated bone resorption", "setting": "[2]", "result": "inhibits PFH stimulated bone resorption"}]}, {"compound": "CC(=O)N[C@@H](CC(C)C)C(=O)N[C@@H](CC(C)C)C(=O)N[C@H](C=O)CCCNC(=N)N", "note": "[leupeptin]", "values": [{"measurement": "prevention of bone resorption in vivo", "setting": "[3]", "result": "effective at preventing bone resorption in vivo"}, {"measurement": "prevention of bone resorption", "setting": "[1]", "result": "prevent bone resorption"}]}, {"compound": "CC(C)C[C@H](NC(=O)[C@H]1O[C@@H]1C(=O)O)C(=O)NCCCCN=C(N)N", "note": "[Example E-64, E-64]", "values": [{"measurement": "prevention of bone resorption in vivo", "setting": "[3]", "result": "effective at preventing bone resorption in vivo"}]}]}
